Results: patent US12559720B2, “Mobilization and collection of peripheral blood hematopoietic stem cells and lymphocytes from deceased donors” (The Regents of the University of California, priority 2018, dated 2026)

Tests used:
[1] = tested on: CD34+ cells mobilized from bone marrow into peripheral blood; experiment: First working embodiment: single-dose plerixafor mobilization in a deceased donor, apheresis, then CD34+ isolation
PB HSC's / CD34+ cells = conditions: cited from earlier work

**Q.** Which “% CD34+” value ([1]; Leukopak Product) does the source give for `c1cc(CN2CCCNCCNCCCNCC2)ccc1CN1CCCNCCNCCCNCC1` [plerixafor, 1-{[4-(1,4,8,11-tetrazacyclotetradec-1-ylmethyl)phenyl]methyl}-1,4,8,11 tetrazacyclotetradecane] here?
**A.** 0.87%

**Q.** And the “% viability” value ([1]; Leukopak Product)?
**A.** 99.5%

**Q.** What about the TNC ([1]; Leukopak Product) of the same compound?
**A.** 1.49E+10

**Q.** And the “Total CD34+ (= % CD34+/100 x TNC)” value ([1]; Leukopak Product)?
**A.** 1.29E+08

**Q.** And the TNC/mL ([1]; Leukopak Product, single sc dose plerixafor, apheresis started 8 hours after dose, 24 liters processed)?
**A.** 3.23E+07

**Q.** And the “% CD34+” value ([1]; Positive (CD34) fraction)?
**A.** 95%

**Q.** What about the “% viability” value ([1]; Positive (CD34) fraction) of the same compound?
**A.** 95%

**Q.** And the TNC ([1]; Positive (CD34) fraction)?
**A.** 1.22E+08

**Q.** And the TNC/mL ([1]; Positive (CD34) fraction)?
**A.** 2.60E+06

**Q.** And the “Total CD34+ (= % CD34+/100 x TNC)” value ([1]; Positive (CD34) fraction)?
**A.** 1.16E+08

**Q.** What about the “whole body CT scans, routine hematology and serum chemistry panels before and after the procedure” value ([1]; deceased donor, single dose plerixafor) of the same compound?
**A.** remained stable

**Q.** And the “tolerability of the procedure (vital signs, oxygenation, urine output)” value ([1]; deceased donor, single sc dose plerixafor (0.24 kg/mg), 8 hours apheresis)?
**A.** tolerated the procedure well

**Q.** And the “viable CD34+ cells isolated” value ([1]; first working embodiment)?
**A.** more than 1.0×10^8 cells

**Q.** What about the “purity of isolated CD34+ cells” value ([1]; first working embodiment, after isolation) of the same compound?
**A.** 90-95%

**Q.** And the “peak onset of action” value (PB HSC's / CD34+ cells; after administration)?
**A.** 6 to 10 h

**Q.** And the “fraction of healthy donors who fail to produce desired numbers of CD34+ cells/kg” value (PB HSC's / CD34+ cells; single agent, standard dose 0.24 mg/kg, subcutaneously or intravenously)?
**A.** ⅓

**Q.** And the “tolerability / organ toxicity” value (PB HSC's / CD34+ cells; single subcutaneous dose)?
**A.** well tolerated with no major organ toxicity
